One block for each compound: values may come before it.
Columns and labels:
Human rhinovirus sp. [1] = assay: Antiviral activity against rhinoviral-1B serotype in a plaque inhibition assay using monolayers of M-HeLa cells; type: functional, organism-based
Human rhinovirus sp. [2] = assay: Antiviral activity against rhinoviral 31 serotype in a plaque inhibition assay using monolayers of M-HeLa cells; type: functional, organism-based
Human rhinovirus sp. [3] = assay: Antiviral activity against rhinoviral 30 serotype in a plaque inhibition assay using monolayers of M-HeLa cells; type: functional, organism-based
Human rhinovirus sp. [4] = assay: Antiviral activity against rhinoviral-19 serotype in a plaque inhibition assay using monolayers of M-HeLa cells; type: functional, organism-based
Human rhinovirus sp. [5] = assay: Antiviral activity against rhinoviral 15 serotype in a plaque inhibition assay using monolayers of M-HeLa cells; type: functional, organism-based
Human rhinovirus sp. [6] = assay: Antiviral activity against rhinoviral 16 serotype in a plaque inhibition assay using monolayers of M-HeLa cells; type: functional, organism-based
Human rhinovirus sp. [7] = assay: Percent inhibitory activity at 8 uM against rhinoviral 3 serotype in a plaque inhibition assay using monolayers of M-HeLa cells; type: functional
Human rhinovirus sp. [8] = assay: Antiviral activity against rhinoviral 5 serotype in a plaque inhibition assay using monolayers of M-HeLa cells; type: functional, organism-based
Human rhinovirus sp. [9] = assay: Antiviral activity against rhinoviral 9 serotype in a plaque inhibition assay using monolayers of M-HeLa cells; type: functional, organism-based
Human rhinovirus sp. [10] = assay: Percent inhibitory activity at 8 uM against rhinoviral 13 serotype in a plaque inhibition assay using monolayers of M-HeLa cells; type: functional
Human rhinovirus sp. [11] = assay: Antiviral activity against rhinoviral 2 serotype in a plaque inhibition assay using monolayers of M-HeLa cells; type: functional, organism-based
Human rhinovirus sp. [12] = assay: Antiviral activity against rhinoviral 12 serotype in a plaque inhibition assay using monolayers of M-HeLa cells; type: functional, organism-based
Human rhinovirus sp. [13] = assay: Antiviral activity against rhinoviral 14 serotype in a plaque inhibition assay using monolayers of M-HeLa cells; type: functional, organism-based
Human rhinovirus sp. [14] = assay: Antiviral activity against rhinoviral-1A serotype in a plaque inhibition assay using monolayers of M-HeLa cells; type: functional, organism-based
Human rhinovirus sp. [15] = assay: Antiviral activity against rhinoviral 29 serotype in a plaque inhibition assay using monolayers of M-HeLa cells; type: functional, organism-based
Human rhinovirus sp. [16] = assay: Antiviral activity against rhinoviral 4 serotype in a plaque inhibition assay using monolayers of M-HeLa cells; type: functional, organism-based
Human rhinovirus sp. [17] = assay: Antiviral activity against rhinoviral-18 serotype in a plaque inhibition assay using monolayers of M-HeLa cells; type: functional, organism-based
Human rhinovirus sp. [18] = assay: Percent inhibitory activity at 8 uM against rhinoviral 21 serotype in a plaque inhibition assay using monolayers of M-HeLa cells; type: functional
Human rhinovirus sp. [19] = assay: Antiviral activity against rhinoviral 8 serotype in a plaque inhibition assay using monolayers of M-HeLa cells; type: functional, organism-based
Human rhinovirus sp. [20] = assay: Percent inhibitory activity at 8 uM against rhinoviral 19s erotype in a plaque inhibition assay using monolayers of M-HeLa cells; type: functional
Human rhinovirus sp. [21] = assay: Percent inhibitory activity at 8 uM against rhinoviral 15 serotype in a plaque inhibition assay using monolayers of M-HeLa cells; type: functional
Human rhinovirus sp. [22] = assay: Percent inhibitory activity at 8 uM against rhinoviral 30 serotype in a plaque inhibition assay using monolayers of M-HeLa cells; type: functional
Human rhinovirus sp. [23] = assay: Percent inhibitory activity at 8 uM against rhinoviral 29 serotype in a plaque inhibition assay using monolayers of M-HeLa cells; type: functional
Human rhinovirus sp. [24] = assay: Antiviral activity against rhinoviral 19 serotype in a plaque inhibition assay using monolayers of M-HeLa cells; type: functional, organism-based
Human rhinovirus sp. [25] = assay: Antiviral activity against rhinoviral 18 serotype in a plaque inhibition assay using monolayers of M-HeLa cells; type: functional, organism-based
Human rhinovirus sp. [26] = assay: Antiviral activity against rhinoviral 3 serotype in a plaque inhibition assay using monolayers of M-HeLa cells; type: functional, organism-based
Human rhinovirus sp. [27] = assay: Percent inhibitory activity at 8 uM against rhinoviral 31 serotype in a plaque inhibition assay using monolayers of M-HeLa cells; type: functional
Human rhinovirus sp. [28] = assay: Percent inhibitory activity at 8 uM against rhinoviral 5 serotype in a plaque inhibition assay using monolayers of M-HeLa cells; type: functional

- IC50 (Human rhinovirus sp. [1]): 2.1 µM
Compound: CN(C)c1nc(C(F)(F)F)nc2c1ncn2Cc1ccc(Cl)c([N+](=O)[O-])c1

- IC50 (Human rhinovirus sp. [1]): 0.3 µM
Compound: CN(C)c1nc(C(F)(F)F)nc2c1ncn2Cc1ccc(C#N)cc1

- IC50 (Human rhinovirus sp. [1]): 1.7 µM
Compound: CN(C)c1nc(C(F)(F)F)nc2c1ncn2Cc1ccccc1N

- IC50 (Human rhinovirus sp. [1]): > 1 µM
Compound: COc1cc(Cn2cnc3c(N(C)C)nc(C(F)(F)F)nc32)ccc1C

- IC50 (Human rhinovirus sp. [1]): 5.6 µM
Compound: COc1ccccc1Cn1cnc2c(N(C)C)nc(C(F)(F)F)nc21

- IC50 (Human rhinovirus sp. [2]): 13 µM
- IC50 (Human rhinovirus sp. [3]): 7.5 µM
- IC50 (Human rhinovirus sp. [4]): 5.4 µM
- IC50 (Human rhinovirus sp. [5]): 3.7 µM
- IC50 (Human rhinovirus sp. [6]): 0.74 µM
- IC50 (Human rhinovirus sp. [8]): > 8 µM
- IC50 (Human rhinovirus sp. [9]): 0.71 µM
- IC50 (Human rhinovirus sp. [11]): 6.1 µM
- IC50 (Human rhinovirus sp. [12]): 5.1 µM
- IC50 (Human rhinovirus sp. [13]): 10 µM
- IC50 (Human rhinovirus sp. [14]): 0.73 µM
- IC50 (Human rhinovirus sp. [15]): 4.8 µM
- IC50 (Human rhinovirus sp. [16]): 8.4 µM
- IC50 (Human rhinovirus sp. [17]): 8.1 µM
- IC50 (Human rhinovirus sp. [19]): 11 µM
- IC50 (Human rhinovirus sp. [1]): 0.12 µM
Compound: CN(C)c1nc(C(F)(F)F)nc2c1ncn2Cc1ccc(Cl)c(Cl)c1
- Inhibition (Human rhinovirus sp. [7]): 40%
- Inhibition (Human rhinovirus sp. [10]): 23%
- Inhibition (Human rhinovirus sp. [18]): 29%

- IC50 (Human rhinovirus sp. [1]): 0.15 µM
Compound: CN(C)c1nc(C(F)(F)F)nc2c1ncn2Cc1ccccc1F

- IC50 (Human rhinovirus sp. [1]): > 1.3 µM
Compound: Cc1cc(C)cc(Cn2cnc3c(N(C)C)nc(C(F)(F)F)nc32)c1

- IC50 (Human rhinovirus sp. [2]): 13 µM
- IC50 (Human rhinovirus sp. [6]): 1.2 µM
- IC50 (Human rhinovirus sp. [8]): > 8 µM
- IC50 (Human rhinovirus sp. [9]): 0.95 µM
- IC50 (Human rhinovirus sp. [11]): 2.8 µM
- IC50 (Human rhinovirus sp. [12]): 7.2 µM
- IC50 (Human rhinovirus sp. [13]): 11 µM
- IC50 (Human rhinovirus sp. [14]): 0.83 µM
- IC50 (Human rhinovirus sp. [16]): 7.6 µM
- IC50 (Human rhinovirus sp. [17]): 6.1 µM
- IC50 (Human rhinovirus sp. [19]): > 8 µM
- IC50 (Human rhinovirus sp. [1]): 0.11 µM
Compound: Cc1ccc(Cn2cnc3c(N(C)C)nc(C(F)(F)F)nc32)c(C)c1
- Inhibition (Human rhinovirus sp. [20]): 36%
- Inhibition (Human rhinovirus sp. [21]): 30%
- Inhibition (Human rhinovirus sp. [7]): 40%
- Inhibition (Human rhinovirus sp. [22]): 33%
- Inhibition (Human rhinovirus sp. [10]): 13%
- Inhibition (Human rhinovirus sp. [23]): 20%
- Inhibition (Human rhinovirus sp. [18]): 16%

- IC50 (Human rhinovirus sp. [1]): 0.2 µM
Compound: CN(C)c1nc(C(F)(F)F)nc2c1ncn2Cc1ccc(CN)cc1

- IC50 (Human rhinovirus sp. [1]): 0.06 µM
Compound: CN(C)c1nc(C(F)(F)F)nc2c1ncn2Cc1cccc(Br)c1

- IC50 (Human rhinovirus sp. [1]): 0.74 µM
Compound: CN(C)c1nc(C(F)(F)F)nc2c1ncn2Cc1cccc(NC=O)c1

- IC50 (Human rhinovirus sp. [1]): 0.78 µM
Compound: CCCCc1ccc(Cn2cnc3c(N(C)C)nc(C(F)(F)F)nc32)cc1

- IC50 (Human rhinovirus sp. [1]): 180 µM
Compound: CN(C)c1cc(Cl)ccc1Cn1cnc2c(N(C)C)nc(C(F)(F)F)nc21

- IC50 (Human rhinovirus sp. [1]): 0.47 µM
Compound: CN(C)c1nc(C(F)(F)F)nc2c1ncn2Cc1ccc(Cl)cc1N

- IC50 (Human rhinovirus sp. [1]): 4.4 µM
Compound: CN(C)c1nc(C(F)(F)F)nc2c1ncn2Cc1ccc(OCc2ccccc2)cc1

- IC50 (Human rhinovirus sp. [2]): 8.6 µM
- IC50 (Human rhinovirus sp. [3]): 7.9 µM
- IC50 (Human rhinovirus sp. [5]): 4.5 µM
- IC50 (Human rhinovirus sp. [24]): 2.5 µM
- IC50 (Human rhinovirus sp. [6]): 0.81 µM
- IC50 (Human rhinovirus sp. [8]): > 8 µM
- IC50 (Human rhinovirus sp. [9]): 1 µM
- IC50 (Human rhinovirus sp. [11]): 4.5 µM
- IC50 (Human rhinovirus sp. [12]): 5.2 µM
- IC50 (Human rhinovirus sp. [13]): 7.6 µM
- IC50 (Human rhinovirus sp. [14]): 0.57 µM
- IC50 (Human rhinovirus sp. [15]): 2.6 µM
- IC50 (Human rhinovirus sp. [16]): 3.8 µM
- IC50 (Human rhinovirus sp. [25]): 10 µM
- IC50 (Human rhinovirus sp. [19]): 7.2 µM
- IC50 (Human rhinovirus sp. [1]): 0.07 µM
Compound: CSc1ccc(Cn2cnc3c(N(C)C)nc(C(F)(F)F)nc32)cc1
- Inhibition (Human rhinovirus sp. [7]): 39%
- Inhibition (Human rhinovirus sp. [10]): 35%
- Inhibition (Human rhinovirus sp. [18]): 35%

- IC50 (Human rhinovirus sp. [1]): 14 µM
Compound: CN(C)c1nc(C(F)(F)F)nc2c1ncn2Cc1ccc(-c2ccccc2)cc1

- IC50 (Human rhinovirus sp. [1]): > 0.2 µM
Compound: CN(C)c1cc(Cn2cnc3c(N(C)C)nc(C(F)(F)F)nc32)ccc1Cl

- IC50 (Human rhinovirus sp. [1]): 0.68 µM
Compound: COc1cc(Cn2cnc3c(N(C)C)nc(C(F)(F)F)nc32)ccc1Cl

- IC50 (Human rhinovirus sp. [1]): 0.95 µM
Compound: CN(C)c1nc(C(F)(F)F)nc2c1ncn2Cc1cccc(O)c1

- IC50 (Human rhinovirus sp. [26]): 9 µM
- IC50 (Human rhinovirus sp. [6]): 4.3 µM
- IC50 (Human rhinovirus sp. [9]): 1.9 µM
- IC50 (Human rhinovirus sp. [11]): 9.4 µM
- IC50 (Human rhinovirus sp. [12]): 8.1 µM
- IC50 (Human rhinovirus sp. [13]): 8 µM
- IC50 (Human rhinovirus sp. [14]): 4 µM
- IC50 (Human rhinovirus sp. [15]): 4.2 µM
- IC50 (Human rhinovirus sp. [16]): 10 µM
- IC50 (Human rhinovirus sp. [17]): 13 µM
- IC50 (Human rhinovirus sp. [19]): 7.9 µM
- IC50 (Human rhinovirus sp. [1]): 0.2 µM
Compound: CN(C)c1nc(C(F)(F)F)nc2c1ncn2Cc1ccccc1Cl
- Inhibition (Human rhinovirus sp. [20]): 27%
- Inhibition (Human rhinovirus sp. [21]): 30%
- Inhibition (Human rhinovirus sp. [27]): 38%
- Inhibition (Human rhinovirus sp. [22]): 31%
- Inhibition (Human rhinovirus sp. [10]): 24%
- Inhibition (Human rhinovirus sp. [28]): 24%
- Inhibition (Human rhinovirus sp. [18]): 38%

- IC50 (Human rhinovirus sp. [1]): 0.18 µM
Compound: CN(C)c1nc(C(F)(F)F)nc2c1ncn2Cc1ccc(NC=O)cc1
